Read-outs that look alike come from different tables or passages of the source.
Assays:
[1] = In vitro cytotoxicity assay (AlamarBlue) against PMA-transformed THP1 cells; format: cell-based; settings: human, PMA-transformed non-dividing THP1, mean ± SEM of duplicates, NC = not cytotoxic at highest concentration tested (50 μM inhibitors, 500 nM CQ), read-out: THP1 Cell Cytotoxicity (IC50)
Procedure: The E3 ligase inhibitors were also tested against Vero cells (African green monkey kidney epithelial cells) and transformed non-dividing human monocytic (THP1) cells. The methods described earlier were used to measure cytotoxicity for Vero and THP1 cells. In brief, four days’ old Vero and THP1 cell cultures were diluted with RPMI medium to 25,000 cells/mL. Vero cells (100 μL per well) were seeded in a clear 96 well culture plate and incubated for 24 h at 37 °C in a 5% CO2 incubator to obtain confluent cells. Phorbol 12-myristate 13-acetate (PMA) (25 ng/mL) was added to THP1 cell culture to transform the cells to adherent macrophages. PMA treated THP1cells were dispensed into clear 96 well culture plates (200 μL/well; 25,000 cells/mL) and incubated at 37 °C in a 5% CO2 incubator for overnight. The test compounds were prepared in DMSO at 10 mM concentration. The compounds were serially diluted in RPMI medium with 2% FBS in the separate daughter plates, for testing at eight concentrations. The cells were washed with culture medium, replaced with the fresh medium and test compounds were added. The maximum concentration of E3 ligase inhibitors and CQ used in these assays were 50 μM and 500 nM respectively. DMSO was tested as vehicle control in these assays. The plates were incubated further in a CO2 incubator at 37 °C for 48 h. After 48 h, 10 μL of AlamarBlue® was added to each well, and the plates were incubated in a CO2 incubator at 37 °C for overnight. […] IC50 values were computed by analyzing dose-response curves with XLfit©.

[2] = In vitro cytotoxicity assay (AlamarBlue) against Vero cells; format: cell-based; settings: African green monkey, Vero cells (kidney epithelial cells), mean ± SEM of duplicates, NC = not cytotoxic at highest concentration tested (50 μM inhibitors, 500 nM CQ), read-out: Vero Cell Cytotoxicity (IC50)
Procedure: The E3 ligase inhibitors were also tested against Vero cells (African green monkey kidney epithelial cells) and transformed non-dividing human monocytic (THP1) cells. The methods described earlier were used to measure cytotoxicity for Vero and THP1 cells. In brief, four days’ old Vero and THP1 cell cultures were diluted with RPMI medium to 25,000 cells/mL. Vero cells (100 μL per well) were seeded in a clear 96 well culture plate and incubated for 24 h at 37 °C in a 5% CO2 incubator to obtain confluent cells. Phorbol 12-myristate 13-acetate (PMA) (25 ng/mL) was added to THP1 cell culture to transform the cells to adherent macrophages. PMA treated THP1cells were dispensed into clear 96 well culture plates (200 μL/well; 25,000 cells/mL) and incubated at 37 °C in a 5% CO2 incubator for overnight. The test compounds were prepared in DMSO at 10 mM concentration. The compounds were serially diluted in RPMI medium with 2% FBS in the separate daughter plates, for testing at eight concentrations. The cells were washed with culture medium, replaced with the fresh medium and test compounds were added. The maximum concentration of E3 ligase inhibitors and CQ used in these assays were 50 μM and 500 nM respectively. DMSO was tested as vehicle control in these assays. The plates were incubated further in a CO2 incubator at 37 °C for 48 h. […]

[3] = test system: P. falciparum W2 (CQ-resistant strain); assay: Antimalarial SYBR Green I-based fluorescence assay, PfW2; format: cell-based; settings: Plasmodium falciparum
Procedure: CQ-sensitive (D6, Sierra Leone) and -resistant (W2, Indochina) strains of P. falciparum cultures were obtained from Malaria Research and Reference Reagent Resource Center (MR4), USA and maintained at 5% hematocrit in complete culture medium (RPMI 1640 supplemented with 60 μg/mL amikacin, 27 mM NaHCO3 and 10% heat-inactivated normal human type A+ serum). The medium of the culture was replaced every 48 h, flushed with a gas mixture of 90% N2, 5% CO2 and 5% O2 and incubated at 37 °C.
CQ-sensitive P. falciparum D6 strain (Pf D6) and CQ-resistant P. falciparum W2 strain (Pf W2) were grown in RPMI 1640 medium supplemented with amikacin (60 μg/mL), NaHCO3 (27 mM) and 10% heat-inactivated normal human type A+ serum. Only ring stages of the parasite were counted and adjusted to 2% parasitemia with 2% hematocrit. Stock solutions (10 mM) of the test inhibitors were prepared in DMSO. The compounds were serially diluted in serum-free RPMI-1640 medium for testing at eight concentrations. The maximum concentrations of E3 ligase inhibitors and CQ used in the assay were 50 μM and 500 nM respectively. The plates were incubated at 37 °C in 5% CO2, 5% O2, and 90% N2 environment for 48, 72, 96 and 120 h. After incubation, SYBR green with RBC lysis buffer was added to each well, and the plates were incubated for 1 h in the dark at room temperature. The standard antimalarial agent, CQ was tested as the positive control, and DMSO was tested as vehicle control. Standard fluorescence was measured Fluostar Galaxy microplate reader (BMG Lab Technologies) at excitation wavelength of 485 nm and emission wavelength of 535 nm. The anti-malarial activity (expressed as IC50 values) was determined by the dose-response analysis with XLfit©.

[4] = test system: P. falciparum D6 (CQ-sensitive strain); assay: Antimalarial SYBR Green I-based fluorescence assay, PfD6; format: cell-based
Procedure: The medium of the culture was replaced every 48 h, flushed with a gas mixture of 90% N2, 5% CO2 and 5% O2 and incubated at 37 °C.
Only ring stages of the parasite were counted and adjusted to 2% parasitemia with 2% hematocrit. Stock solutions (10 mM) of the test inhibitors were prepared in DMSO. […] The maximum concentrations of E3 ligase inhibitors and CQ used in the assay were 50 μM and 500 nM respectively. The plates were incubated at 37 °C in 5% CO2, 5% O2, and 90% N2 environment for 48, 72, 96 and 120 h. After incubation, SYBR green with RBC lysis buffer was added to each well, and the plates were incubated for 1 h in the dark at room temperature. The standard antimalarial agent, CQ was tested as the positive control, and DMSO was tested as vehicle control. […] The anti-malarial activity (expressed as IC50 values) was determined by the dose-response analysis with XLfit©.

[5] = test system: P. falciparum D6 strain (PfD6); assay: Stage specific imaging analysis: parasitemia and differential stage counts in synchronized PfD6 culture (Giemsa smears); format: cell-based, Plasmodium falciparum; settings: CQ 50 nM; for effect on parasitemia as compared to vehicle control: HLI 373 5 μM, Nutlin 3 35 μM; for overall parasitemia: synchronized PfD6, ~6% parasitemia at 0 h, JNJ 26854165 5 μM
Procedure: The stage-specific activity of the lead compounds was tested against Pf D6. […] The culture was synchronized by 5% sorbitol treatment as previously described. The synchronized culture of PfD6, with ~6% parasitemia and >90% of the parasite in ring stage, was used for these assays. Stock solutions (10 mM) of the test inhibitors were prepared in DMSO. […] The effect of the compounds was monitored after every 8 h (0, 8, 16, 24, 32, 40 and 48 h) by preparing thin smears of the infected erythrocytes. The slides were stained with Giemsa, and digital images of the parasite were captured with Nikon Eclipse microscope under bright field using NIS-element imaging software. The images were analyzed for the parasite stages and morphological changes (if any) in the parasite. The levels of parasitemia and differential parasitemia (relative percentage of different parasite stages) counts were also measured. At least one thousand erythrocytes (total- infected & uninfected) were counted from each slide for determination of the level of parasitemia and differential parasite stage counts.

MDM2 = settings: read-out: Ki, MDM 2 inhibitor; cited from earlier work
[6] = W2, 48 h incubation, mean ± SEM of duplicates, NA = not active at highest concentration tested (50 μM inhibitors, 500 nM CQ), read-out: P. falciparum W2 (CQ-resistant strain) IC50
[7] = W2, 72 h incubation, mean ± SEM of duplicates, NA = not active at highest concentration tested (50 μM inhibitors, 500 nM CQ), read-out: P. falciparum W2 (CQ-resistant strain) IC50
[8] = W2, 96 h incubation, mean ± SEM of duplicates, NA = not active at highest concentration tested (50 μM inhibitors, 500 nM CQ), read-out: P. falciparum W2 (CQ-resistant strain) IC50
[9] = W2, 120 h incubation, mean ± SEM of duplicates, NA = not active at highest concentration tested (50 μM inhibitors, 500 nM CQ), read-out: P. falciparum W2 (CQ-resistant strain) IC50
[10] = Plasmodium falciparum, D6; 48 h incubation; mean ± SEM of duplicates; NA = not active at highest concentration tested (50 μM inhibitors, 500 nM CQ); read-out: P. falciparum D6 (CQ-sensitive strain) IC50
[11] = Plasmodium falciparum, D6; 72 h incubation; mean ± SEM of duplicates; NA = not active at highest concentration tested (50 μM inhibitors, 500 nM CQ); read-out: P. falciparum D6 (CQ-sensitive strain) IC50
[12] = W2, 48-120 h, read-out: IC50 against PfW2
[13] = Plasmodium falciparum, D6; 48-120 h; read-out: IC50 against PfD6
[14] = Plasmodium falciparum, D6; 96 h incubation; mean ± SEM of duplicates; NA = not active at highest concentration tested (50 μM inhibitors, 500 nM CQ); read-out: P. falciparum D6 (CQ-sensitive strain) IC50
[15] = Plasmodium falciparum, D6; 120 h incubation; mean ± SEM of duplicates; NA = not active at highest concentration tested (50 μM inhibitors, 500 nM CQ); read-out: P. falciparum D6 (CQ-sensitive strain) IC50
[16] = 40 h post-treatment, vehicle control 6.90
[17] = 48 h post-treatment, vehicle control 5.28%
[18] = Plasmodium falciparum, D6, 48 h; read-out: IC90 against PfD6 (concentration almost equivalent to IC90)

Structure (SMILES) | IC50 at 48 h [1] [µM] | IC50 at 48 h [2] [µM] | IC50 [3, 6] [µM] | IC50 [3, 7] [µM] | IC50 [3, 8] [µM] | IC50 [3, 9] [µM] | IC50 [4, 10] [µM] | IC50 [4, 11] [µM] | IC50 [3, 12] [µM] | IC50 [4, 13] [µM] | IC50 [4, 14] [µM] | IC50 [4, 15] [µM] | effect on parasitemia as compared to vehicle control ([5]; 40 h post-treatment) | overall parasitemia [5, 16] [%] | overall parasitemia [5, 17] [%] | IC90 [4, 18] [µM] | further results
O=C1c2ccccc2-c2nc3nonc3nc21 [SMER 3] | 5.8 ± 0.28 | 16 ± 0.55 | 20.6 ± 5.19 | 23.7 ± 3.53 | 45.8 ± 0.09 | 48.6 ± 0.49 | 12.1 ± 0.68 | 49 ± 0.94 | – | – | – | – | – | – | – | – | –
CCc1c2ccccc2c(CSC(=N)N)c2ccccc12 [NSC 146109] | 1.2 ± 0.28 | 5.27 ± 0.05 | 2.07 ± 0.22 | 2.63 ± 0.05 | 2.91 ± 0.03 | 3.23 ± 0.03 | 5.24 ± 0.2 | 4.8 ± 0.05 | < 6 | < 6 | 3.09 ± 0.08 | 2.52 ± 0.39 | – | – | – | – | –
CCN(CC)CCCC(C)Nc1ccnc2cc(Cl)ccc12 (centres unmarked) [Chloroquine] | – | – | – | – | – | – | – | – | – | – | – | – | significantly decreased the overall parasitemia | 2.40 | 1.92 | – | parasites arrested at ring stage ([5]; 40 and 48 h post-treatment): more than 50%; parasites arrested at ring stage ([5]; 16 h post-treatment): around 50%; IC50 ([3]; W2, 48 h, read-out: P. falciparum W2 (CQ-resistant strain) IC50): 0.19 ± 0.004 µM; IC50 ([3]; W2, 72 h, read-out: P. falciparum W2 (CQ-resistant strain) IC50): 0.19 ± 0.007 µM; IC50 ([3]; W2, 96 h, read-out: P. falciparum W2 (CQ-resistant strain) IC50): 0.2 ± 0.001 µM; IC50 ([3]; W2, 120 h, read-out: P. falciparum W2 (CQ-resistant strain) IC50): 0.19 ± 0.002 µM; IC90 ([4]; Plasmodium falciparum, D6, 48 h, read-out: IC90 against PfD6 (concentration almost equivalent to IC90)): ~0.05 µM; IC50 ([4]; Plasmodium falciparum, D6, 48 h, read-out: P. falciparum D6 (CQ-sensitive strain) IC50): 0.03 ± 0.001 µM; IC50 ([4]; Plasmodium falciparum, D6, 72 h, read-out: P. falciparum D6 (CQ-sensitive strain) IC50): 0.02 ± 0.004 µM; IC50 ([4]; Plasmodium falciparum, D6, 96 h, read-out: P. falciparum D6 (CQ-sensitive strain) IC50): 0.02 ± 0.001 µM; IC50 ([4]; Plasmodium falciparum, D6, 120 h, read-out: P. falciparum D6 (CQ-sensitive strain) IC50): 0.02 ± 0.001 µM
c1ccc2c(CCNc3ccc(Nc4ccncc4)cc3)c[nH]c2c1 [JNJ 26854165, Serdemetan] | 22.4 ± 0.56 | – | 1.86 ± 0.03 | 1.74 ± 0.27 | 2.28 ± 0.03 | 2.02 ± 0.36 | 2.17 ± 0.004 | 2.93 ± 0.03 | < 6 | < 6 | 1.41 ± 0.03 | 1.46 ± 0.12 | – | 1.90 | 1.76 | ~5 | –
COc1ccc(C2=N[C@@H](c3ccc(Cl)cc3)[C@@H](c3ccc(Cl)cc3)N2C(=O)N2CCNC(=O)C2)c(OC(C)C)c1 (racemic) [Nutlin 3] | 35.2 ± 2.76 | – | 18.6 ± 1.6 | 15.72 ± 0.04 | 15.4 ± 0.54 | 15.6 ± 2.17 | 12.8 ± 1.34 | 19.4 ± 0.34 | – | – | 15.9 ± 1.24 | 20 ± 4.52 | significantly reduced | – | – | ~35 | –
Cc1ccc2ccc(C(Nc3ccccc3)c3ccccc3)c(O)c2n1 (centres unmarked) [NSC 66811] | 37.8 ± 4.1 | – | 28.7 ± 4.01 | 39 ± 2.71 | – | – | 32.2 ± 4.57 | 37 ± 1.8 | – | – | – | – | – | – | – | – | Ki (MDM2): 0.12 µM

Source: paper PMC5457628, “Inhibitors of ubiquitin E3 ligase as potential new antimalarial drug leads” (BMC Pharmacology & Toxicology, 2017)
